System: MRSA MW-2
Assay: Prophylactic activity on pigskin
Type: cell-based, Staphylococcus aureus
Conditions: treatment dried 1-hour, about 10^3 CFU for 1-hour; chitosan-arginine 60 μg/cm^2 in 70% ethanol (21 kDa, 29% functionalized, FIG. 24); hydrogen peroxide 3%

For `CCO` [70% ethanol, ethanol], the “prophylactic activity, qualitative CFU recovered from treated skin surface” value was “no prophylactic activity”.
In the case of `OO` [hydrogen peroxide], the “prophylactic activity, qualitative CFU recovered from treated skin surface” value is reported as “no prophylactic activity”.
